Data published in paper PMC1764880, “Acyl-CoA-binding and self-associating properties of a recombinant 13.3 kDa N-terminal fragment of diacylglycerol acyltransferase-1 from oilseed rape” (BMC Biochemistry, 2006).

Assays:
BnDGAT1(1–116)His6 [1] = biological target: T1, BnDGAT1(1–116)His6 (Brassica napus, UniProt Q9XGR5); assay: Lipidex-1000 competition binding against [[…]-14C]oleoyl-CoA; conditions: 8 μM free CoA displacing 19 μM [1-14C]oleoyl-CoA, 0.2 μM protein
T1 construct: gene DGAT1; N-terminal hydrophilic cytosolic fragment, residues 1-116, followed by AALE linker and C-terminal His6 (tag kept); pET26b(+), E. coli BL21(DE3), Ni-NTA purified; calculated mass 13,278 Da; self-associates to dimer and tetramer; contains peptide 21-LDRLHRRKSSSDSSN-35
T1 sequence (Q9XGR5 1-116): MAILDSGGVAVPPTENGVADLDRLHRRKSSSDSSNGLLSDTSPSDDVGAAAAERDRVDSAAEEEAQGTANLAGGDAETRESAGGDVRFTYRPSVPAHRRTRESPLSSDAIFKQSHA

BnDGAT1(1–116)His6 [2] = biological target: T1, BnDGAT1(1–116)His6; assay: Lipidex-1000 radioligand binding, Scatchard plot; conditions: read-out: dissociation constant

**Q.** Which “Lipidex-1000 competition binding against [1-14C]oleoyl-CoA” value (BnDGAT1(1–116)His6 [1]) does the source give for `CC(C)(COP(=O)(O)OP(=O)(O)OC[C@H]1O[C@@H](n2cnc3c(N)ncnc32)[C@H](O)[C@@H]1OP(=O)(O)O)[C@@H](O)C(=O)NCCC(=O)NCCS` [CoA] here?
**A.** free CoA or oleoyl-CoA was effective in displacing a similar quantity of radiolabeled ligand

**Q.** How did the Kd (BnDGAT1(1–116)His6 [2]) turn out when `CCCCCCCC/C=C\CCCCCCCCCCCC(=O)SCCNC(=O)CCNC(=O)[C@H](O)C(C)(C)COP(=O)(O)OP(=O)(O)OC[C@H]1O[C@@H](n2cnc3c(N)ncnc32)[C@H](O)[C@@H]1OP(=O)(O)O` [erucoyl-CoA] was run?
**A.** ~2 µM

**Q.** `CCCCCCCC/C=C\CCCCCCCC(=O)SCCNC(=O)CCNC(=O)[C@H](O)C(C)(C)COP(=O)(O)OP(=O)(O)OC[C@H]1O[C@@H](n2cnc3c(N)ncnc32)[C@H](O)[C@@H]1OP(=O)(O)O` [oleoyl-CoA] was tested. Which Kd (BnDGAT1(1–116)His6 [2]) did it give?
**A.** ~17 µM
